Experimental data published in patent publication US20250296938A1, “Compounds that Interact with the Ras Superfamily for the Treatment of Cancers, Inflammatory Diseases, Rasopathies, and Fibrotic Disease” (SHY Therapeutics, LLC, priority 2018, published 2025).
Where two headings read alike, the source gives them in different places.

Tested on: MIA PaCa-2 pancreatic cancer cell line
Experiment: Cell proliferation assay (DAPI)
Format: cell-based
Details: Homo sapiens; for inhibition at 10 µM: read-out: % Inhibition of cell proliferation, MIA PaCa-2 % inh
Protocol: Cell lines: Human NSCLC cells NCI-H1975 and NCI-H1299, and tumor-derived pancreatic cancer cell lines Panc-1, MIA-PACA2, and BxPC3, were all purchased from American Type Culture Collection and grown in complete RPMI medium (BxPC3, NCI-H1975 and NCI-H1299) or DMEM-High Glucose (Panc1 and MIA-PaCa-2), supplemented with penicillin (100 U/mL), streptomycin (100 μg/mL), and 10% heat-inactivated FBS at 37° C. in a humidified incubator with 5% CO2.
Method: Cells were plated at 2000 to 5000 cells/well density in 96-wells plate and cultured ON. Small molecules to be tested were added to the cells in the final concentration of 10 µM in the presence of 0.3% DMSO and 10% FBS, and incubated for 2-4 days at 37° C. in a humidified incubator with 5% CO2. For IC50 value determination, serial dilutions of compounds were added to cells under the same conditions.
Assay: At the end of the incubation period, cell cultures were fixed with a 50-50 mixture (v/v) acetone-methanol for 10 minutes at −20° C., followed by rehydration in PBS for 10 minutes at room temperature. DNA total content was determined by staining cells with DAPI (1 ug/ml) in PBS for 10 minutes at room temperature, followed by 3 washes with PBS. After staining, DAPI fluorescence was recorded (358 nm excitation/461 nm emission) with the 96-well plate reader Molecular Devices Spectramax M3; degree of small molecule-dependent proliferation inhibition was calculated from raw data.

Row | Compound | IC50 (MIA PaCa-2 (Table 5A)) [nM] | inhibition at 10 µM (2-4 days, MIA PaCa-2) [%] | inhibition at 10 µM (MIA PaCa-2 (Table 5A)) [%]
1 | O=C(c1nc(-c2ccccn2)nc(O)c1O)N1CCCC1 [drawing 598] | – | 1 to 25 | –
2 | O=C(NC1CCCC1)c1nc(-c2ccccn2)nc(O)c1O [drawing 599] | – | 26 to 50 | –
3 | CC(C)CN(C)C(=O)c1nc(-c2ccccn2)nc(O)c1O [drawing 600] | – | 0 | –
4 | CC(C)CNC(=O)c1nc(-c2ccccn2)nc(O)c1O [drawing 601] | – | 0 | –
5 | COCCN(C)C(=O)c1nc(-c2ccccn2)nc(O)c1O [drawing 602] | – | 0 | –
6 | O=C(NC1CCC1)c1nc(-c2ccccn2)nc(O)c1O [drawing 603] | – | 0 | –
7 | CC(C)NC(=O)c1nc(-c2nccn2C)nc(O)c1O [drawing 604] | – | 26 to 50 | –
8 | CCN(CC)C(=O)c1nc(-c2nccn2C)nc(O)c1O [drawing 605] | – | 1 to 25 | –
9 | Cn1ccnc1-c1nc(O)c(O)c(C(=O)N2CCCC2)n1 [drawing 606] | – | 0 | –
10 | Cn1ccnc1-c1nc(O)c(O)c(C(=O)NC2CCCC2)n1 [drawing 607] | – | 0 | –
11 | Cn1ccnc1-c1nc(O)c(O)c(C(=O)N2CCCCC2)n1 [drawing 608] | – | 1 to 25 | –
12 | Cn1ccnc1-c1nc(O)c(O)c(C(=O)NC2CCC2)n1 [drawing 609] | – | 1 | –
13 | COC(=O)c1nc(-c2nccn2C)nc(O)c1O [drawing 610] | – | 0 | –
14 | COc1nc(-c2ccccn2)nc(Nc2cnn(C)c2)c1OC [drawing 611] | – | 1 to 25 | –
15 | COCCn1cc(Nc2nc(-c3ccccn3)nc(OC)c2OC)cn1 [drawing 612] | – | 26 to 50 | –
16 | COC1CCN(c2nc(-c3nccn3C)nn3cc(-c4ccccc4)c(-c4ccccc4)c23)C1 (stereo not shown) [drawing 613] | – | 76 to 100 | –
17 | COc1c(O)nc(-c2ccccn2)nc1Oc1ccc(C(=O)N(C)C)cc1 [drawing 614] | – | – | 1 to 25
18 | COc1cccc(-c2sc3nc(-c4nccn4C)nc(NC4CCC(OC)C4)c3c2C)c1F (stereo not shown) [drawing 628] | 750 to 1000 | – | 76 to 100
19 | COc1cccc(-c2sc3nc(-c4nccn4C)nc(N[C@@H]4CC[C@H](OC)C4)c3c2C)c1F [drawing 629] | 750 to 1000 | – | 76 to 100
20 | COC1CCC(Nc2nc(-c3nccn3C)nc3sc(-c4cccc5[nH]ncc45)c(C)c23)C1 (stereo not shown) [drawing 630] | > 1000 | – | 76 to 100
21 | COc1cccc(-c2sc3nc(-c4nc(C)cn4C)nc(N[C@@H]4CC[C@H](OC)C4)c3c2C)c1F [drawing 631] | 750 to 1000 | – | 76 to 100
22 | CO[C@H]1CC[C@@H](Nc2nc(-c3nc(C)cn3C)nc3sc(-c4cccc5[nH]ncc45)c(C)c23)C1 [drawing 632] | > 1000 | – | 76 to 100
23 | CO[C@H]1CC[C@@H](Nc2nc(-c3nccn3C)nc(C(=O)N3CCc4c(O)cccc4C3)c2C)C1 [drawing 636] | > 1000 | – | 1 to 25
24 | CO[C@H]1C[C@@H](Nc2nc(-c3nccn3C)nc3sccc23)C1 [drawing 638] | > 1000 | – | 26 to 50
25 | CO[C@H]1C[C@@H](Nc2nc(-c3nccn3C)nc3sc(-c4ccn(C)n4)c(C)c23)C1 [drawing 649] | > 1000 | – | 76 to 100
26 | CO[C@H]1CC[C@@H](Nc2nc(-c3nccn3C)nc3sc(-c4ccn(C)n4)c(C)c23)C1 [drawing 650] | 750 to 1000 | – | 76 to 100
27 | Cc1c(-c2ccn(C)n2)sc2nc(-c3nccn3C)nc(NCCCS(C)(=O)=O)c12 [drawing 651] | > 1000 | – | 0
28 | Cc1c(-c2ccn(C)n2)sc2nc(-c3nccn3C)nc(NCCCC(=O)N(C)C)c12 [drawing 652] | > 1000 | – | 0
29 | Cc1c(-c2ccn(C)n2)sc2nc(-c3nccn3C)nc(NCCOC(=O)N(C)C)c12 [drawing 653] | > 1000 | – | 26 to 50
30 | CO[C@H]1CC[C@@H](Nc2nc(-c3nccn3C)nc3sc(-c4ccn(C(C)C)n4)c(C)c23)C1 [drawing 654] | 500 to 749 | – | 76 to 100

Further lines, with some results ahead:

Row | IC50 (MIA PaCa-2 (Table 5A)) [nM] | Compound | inhibition at 10 µM (2-4 days, MIA PaCa-2) [%] | inhibition at 10 µM (MIA PaCa-2 (Table 5A)) [%]
31 | > 1000 | COc1c(O)nc(-c2ccccn2)nc1Nc1ccccc1 [drawing 615] | – | 76 to 100
32 | > 1000 | CCn1cc(Nc2nc(-c3ccccn3)nc(O)c2OC)cn1 [drawing 616] | – | 0
33 | > 1000 | CCOc1cccc(Nc2nc(-c3ccccn3)nc(O)c2OC)c1 [drawing 617] | – | 76 to 100
34 | 750 to 1000 | COc1cccc(-c2sc3nc(-c4nccn4C)nc(NC4CCC(OC)C4)c3c2-c2ccccc2)c1F (stereo not shown) [drawing 618] | – | 76 to 100
35 | 750 to 1000 | COc1cccc(-c2sc3nc(-c4nccn4C)nc(N[C@@H]4CC[C@H](OC)C4)c3c2-c2ccccc2)c1F [drawing 619] | – | 76 to 100
36 | > 1000 | COC1CCC(Nc2nc(-c3nccn3C)nc3sc(-c4cccc(O)c4F)c(-c4ccccc4)c23)C1 (stereo not shown) [drawing 620] | – | 76 to 100
37 | 750 to 1000 | COc1c(F)cccc1-c1sc2nc(-c3nccn3C)nc(NC3CCC(OC)C3)c2c1-c1ccccc1 (stereo not shown) [drawing 621] | – | 76 to 100
38 | 750 to 1000 | COc1c(F)cccc1-c1sc2nc(-c3nccn3C)nc(N[C@@H]3CC[C@H](OC)C3)c2c1-c1ccccc1 [drawing 622] | – | 76 to 100
39 | 750 to 1000 | COC1CCC(Nc2nc(-c3nccn3C)nc3sc(-c4cccc5[nH]ncc45)c(-c4ccccc4)c23)C1 (stereo not shown) [drawing 623] | – | 76 to 100
40 | 750 to 1000 | CO[C@H]1CC[C@@H](Nc2nc(-c3nccn3C)nc3sc(-c4cccc5[nH]ncc45)c(-c4ccccc4)c23)C1 [drawing 624] | – | 76 to 100
41 | > 1000 | COC1CCN(c2nc(-c3nccn3C)nc3sc(-c4cccc(O)c4F)c(-c4ccccc4)c23)C1 (stereo not shown) [drawing 625] | – | 76 to 100
42 | 500 to 749 | COc1cccc(-c2sc3nc(-c4nccn4C)nc(N[C@H]4C[C@@H](OC)C4)c3c2-c2ccccc2)c1F [drawing 626] | – | 76 to 100
43 | 750 to 1000 | CO[C@H]1C[C@@H](Nc2nc(-c3nccn3C)nc3sc(-c4cnn(C)c4)c(-c4ccccc4)c23)C1 [drawing 627] | – | 76 to 100
44 | < 500 | COCCn1ccnc1-c1nc(O)c2scc(-c3ccc(OCC(C)C)nc3)c2n1 [drawing 633] | – | 76 to 100
45 | 500 to 749 | CC(C)COc1ccc(-c2csc3c(O)nc(-c4nccn4Cc4ccccn4)nc23)cn1 [drawing 634] | – | 76 to 100
46 | < 500 | COc1cccc(Cn2ccnc2-c2nc(O)c3scc(-c4ccc(OCC(C)C)nc4)c3n2)c1 [drawing 635] | – | 76 to 100
47 | > 1000 | CO[C@H]1C[C@@H](Nc2nc(-c3ccccn3)nc3sccc23)C1 [drawing 637] | – | 1 to 25
48 | > 1000 | Cn1ccc(-c2sc3nc(-c4nccn4C)nc(O)c3c2-c2ccccc2)n1 [drawing 639] | – | 76 to 100
49 | > 1000 | CO[C@H]1C[C@@H](Nc2nc(-c3nccn3C)nc3sc(-c4ccn(C)n4)c(-c4ccccc4)c23)C1 [drawing 640] | – | 76 to 100
50 | > 1000 | CO[C@H]1C[C@H](Nc2nc(-c3nccn3C)nc3sc(-c4ccn(C)n4)c(-c4ccccc4)c23)C1 [drawing 641] | – | 76 to 100
51 | > 1000 | CN(C)CCOCCNc1nc(-c2nccn2C)nc2sc(-c3ccn(C)n3)c(-c3ccccc3)c12 [drawing 642] | – | 76 to 100
52 | > 1000 | Cn1ccc(-c2sc3nc(-c4nccn4C)nc(N[C@H]4C[C@@H](O)C4)c3c2-c2ccccc2)n1 [drawing 643] | – | 0
53 | 750 to 1000 | CO[C@H]1C[C@@H](Nc2nc(-c3ncc[nH]3)nc3sc(-c4ccn(C)n4)c(-c4ccccc4)c23)C1 [drawing 645] | – | 76 to 100
54 | 750 to 1000 | CO[C@H]1CC[C@@H](Nc2nc(-c3ncc[nH]3)nc3sc(-c4ccn(C)n4)c(-c4ccccc4)c23)C1 [drawing 646] | – | 76 to 100
55 | 500 to 749 | CO[C@H]1CC[C@@H](Nc2nc(-c3nccn3C)nc3sc(-c4ccn(C(C)C)n4)c(-c4ccccc4)c23)C1 [drawing 647] | – | 76 to 100
56 | > 1000 | COc1nc(-c2ccccn2)nc2c(-c3ccccn3)csc12 [drawing 648] | – | 51 to 75
57 | > 1000 | CO[C@H]1C[C@@H](Nc2nc(-c3nccn3C)nc3sc(C(=O)NC(C)C)c(-c4ccccc4)c23)C1 [drawing 655] | – | 51 to 75
58 | > 1000 | COCCNC(=O)c1sc2nc(-c3nccn3C)nc(N[C@H]3C[C@@H](OC)C3)c2c1-c1ccccc1 [drawing 656] | – | 26 to 50
59 | > 1000 | CO[C@H]1C[C@@H](Nc2nc(-c3nccn3C)nc3sc(C(=O)N4CCOCC4)c(-c4ccccc4)c23)C1 [drawing 657] | – | 26 to 50
60 | > 1000 | COC1CCN(C(=O)c2sc3nc(-c4nccn4C)nc(N[C@H]4C[C@@H](OC)C4)c3c2-c2ccccc2)C1 (stereo partly shown) [drawing 658] | – | 26 to 50
